Measured values as given in patent publication US20240228542A1, “LYTIC DOMAIN FUSION CONSTRUCTS, CHECKPOINT INHIBITORS, AND METHODS OF MAKING AND USING SAME” (A28 Therapeutics Inc., priority 2020, published 2024).

Key:
MDA-MB-435S xenograft = assay: MDA-MB-435S xenograft, multiple dose regimen; type: in vivo, Nu/Nu mice; settings: for tumor free mice: multiple intravenous injections
Procedure: In order to determine the minimal effective dose necessary to reduce MDA-MB-435S xenograft weights in a multiple dose regimen, Nu/Nu female mice, outbred strain, age 8 weeks (Charles River), were injected (s.c.) into the interscapular region with a MDA-MB-435S (passage # 253)/Matrigel suspension (2×10^6 cells/mouse) as previously described above. Phor 18-LHRH (338613) (ID: 338613 lot #P080401) (0.002, and 0.2 mg/kg) were reconstituted in USP saline prior to dosing. The doses were given as a single bolus intravenous injection via lateral tail vein on days 15, 16, 17, 20, 21, 22, 23, 27, 28, 29, 30, 33, 34, 35, 36, 37, 38, 40, 41, 42 after tumor cell inoculation. Saline injections served as control groups.
Each treatment group consisted of 16 mice. During the entire study tumor volumes were recorded twice weekly. Final necropsy was conducted on day 45 after tumor cell injection. […] due to occlusion of the tail vein in most mice. At study endpoint body weight, tumor weights were determined and fixed in phosphate buffered 10% formalin.

2C12 = assay: Cytotoxicity in 2C12 murine ovarian cancer cells (24 h); type: cell-based; settings: 2C12, 24 h; read-out: In vitro activity (IC50)
Procedure: (§1) Murine ovarian cancer cell lines (ID8, IG10, IF5, and 2Cl2) were grown in RPMI 1640 media with 10% Fetal Bovine Serum. Cells were typically seeded (3000 cells per well) into 96 well plates and media was replaced after 48 hours of incubation. […] Phor18-LHRH was provided in lyophilized form was dissolved in saline and added to cells. The duration of incubation was 24 h at 37° C. Cell viability was assessed after 24 hours using a luminometric assays (Promega, CellTiter-0Glo 2.0, G9243). Controls contained saline or 0.1% triton as reference for 0 and 100% cell death, respectively.
(§2) Data were processed and analyzed using GraphPad Prism version 7.00 for Windows (GraphPad Software, San Diego California). Statistical analysis for significance was determined by a two-tailed Student's T-test. Each study was conducted to achieve an […] of at least 6.
(§3) In vitro activities were expressed as IC50 values for each cell line, time point and compound tested that were calculated using the Hill equation (Graph Pad Prizm software).

IG10 = assay: Cytotoxicity in IG10 murine ovarian cancer cells (24 h); type: cell-based; settings: IG10, 24 h; read-out: In vitro activity (IC50)
Procedure: as §1, §2, §3

AN3-CA = assay: Cytotoxicity in AN3-CA endometrial cancer cells; type: cell-based; settings: AN3-CA endometrial cancer cell line; read-out: IC50 in Human Cancer Cell Lines
Procedure: (§4) MDA-MB-435S.luc cells were grown in Leibovitz's L 15 medium, 10% fetal bovine serum, 0.01 mg/ml bovine insulin, 100 IU/ml penicillin, 100 microg/ml streptomycin. The cells were cultured in tight closed flasks. The incubations were conducted using 96 well plates at 10,000 cells per well. Cells were typically seeded into 96 well plates and media was replaced after 48 hours of incubation. Each assay was conducted at increasing concentrations of 0, 0.001, 0.01, 0.05, 0.1, 0.5, 1, 2, 5, 10 and 100 micromolar doses of lytic peptide-binding domain conjugate. Each lytic peptide-binding domain conjugate provided in lyophilized form and was freshly dissolved in saline and added to cells. The duration of incubation was typically 24 h, and cell viability assays were conducted using formazan conversion assays (MTT assay). Controls contained saline or 0.1% triton as reference for 0 and 100% cell death, respectively.
(§5) To ascertain the IC50 of various fusion constructs on different human cancer cell lines compared to cisplatinum, IC50 of fusion constructs were evaluated as in Table 3.

immune cells in tumor = assay: Immune cell profiling (FACS) of ID8 tumors; type: in vivo, C57BL/6 mice
Procedure: Immune Profiling Assay—Immunophenotypic analyses of splenocytes and single cell suspensions from tumors were assessed by flow cytometry. Abs to stain for MDSCs were CD11b-APC (clone M1/70; BD Biosciences), Ly6G-FITC (clone 1A8; BD Biosciences) and Ly6C-PE (clone AL-21; BD Biosciences). For T-cell activation markers, cells were stained with Ab specific for CD4-PE-Cy7 (clone RM4-5; BD Biosciences), CD8-PE-Cy7 (clone 53-6.7; BD Biosciences), CD62L-PE (clone MEL-14; BD Biosciences) and CD44-FITC (clone IM7; Biolegend). Cells were incubated on ice for 30 min, washed and fixed in phosphate buffered saline (PBS) containing 1% formalin for flow cytometric analysis on an LSRII flow cytometer (BD Biosciences).
Immune cell profiling was conducted on ascites (N=3) and tumor tissue (N=3) by processing the samples by the following method and analyzed through Fluorescent Activated Cell Sorting (FACS), see Table 8. Cells were incubated for 30 minutes on ice, washed and fixed in phosphate buffered saline containing 1% formalin for flow cytometric analysis on an LSRII flow cytometer.

SKOV-3 = assay: Cytotoxicity in SKOV-3 ovarian cancer cells; type: cell-based; settings: SKOV-3 ovarian cancer cell line; read-out: IC50 in Human Cancer Cell Lines
Procedure: as §4, §5

242 = assay: Cytotoxicity in cell line 242 (Table 7); type: cell-based, murine; settings: 242, 24 h; read-out: In vitro activity (IC50)
[1] = system: MDA-MB-435S.luc xenograft; assay: MDA-MB-435S.luc xenograft, βCG fusion constructs; type: in vivo, Nu/Nu mice; settings: vs baseline and saline controls
Procedure: Female Nu/Nu mice were injected subcutaneously with a MDA-MB-435S.luc/Matrigel HC suspension (1×10^6 cells). In brief, treatment started on day 13 after tumor cell injection and continued on day 19 and 25. […] The doses for weekly injections were 5, 1 and 0.01 mg/kg body weight, given as a bolus single injection.
The effect of cytolytic peptide injections on the primary tumors is illustrated in FIG. 8. In brief, the FIGS. 8A-8C show tumor volume during the course of the study for each individual peptide. FIGS. 8D-8G show tumor characteristics at necropsy; tumor volume (D), tumor weight (E), live tumor cells (F), tumor conditions (G).
Treatment efficacy was calculated as difference between measurements at the beginning of treatment compared to the measurement at the end of study (FIG. 8H-8I). […] Viability of cells in the tumors was determined at the end of the study when tumors were measured for luciferase activity.

**Q.** What does the source list for “KFAKFAKKFAKFAKKFAKQHWSYGLRPG [Phor18-LHRH]”?
**A.** tumor free mice (MDA-MB-435S xenograft; 0.002 mg/kg): 6/23; tumor free mice (MDA-MB-435S xenograft; 0.2 mg/kg): 1/20; histological examination of H&E stained tumors (MDA-MB-435S xenograft; 0.002 and 0.2 mg/kg, multiple injection regimen): eradication of tumor cells; IC50 (2C12): 1020 nM; IC50 (IG10): 1030 nM; IC50 (AN3-CA): 3800 ± 80 nM; increase of CD8+ T/Treg ratio (immune cells in tumor; tumor (tumor and ascites)): 8 fold; Regulatory T cells (Treg) (immune cells in tumor; tumor, % of CD45+ cells, controls 1.14±0.09%): 0.95±0.15%; Monocytic myeloid suppressor cells (mMDSC) (immune cells in tumor; tumor, % of CD45+ cells, controls 1.5±0.006%): 1.015±0.15%; Macrophages (immune cells in tumor; tumor, % of CD45+ cells, controls 1.6±0.05%): 10.1±0.13%; Dendritic cells (DC) (immune cells in tumor; tumor, % of CD45+ cells, controls 1.88±0.03%): 5.12±0.34%; CD8+ T cells (immune cells in tumor; tumor, % of CD45+ cells, controls 2.6±0.4%): 15.5±0.8%; Natural killer (NK) cells (immune cells in tumor; tumor, % of CD45+ cells, controls 3.76±[…]): 10.67±1.4%; B cells (immune cells in tumor; tumor, % of CD45+ cells, controls 12.14±0.9%): 10.1±2.4%; CD45+ cell fraction of live cells (immune cells in tumor; tumor, Mean±SEM, controls 8.16±[…]): 26.1±5.2%; ratio of CD8+ T cells to regulatory T cells (immune cells in tumor; tumor, controls 2.27±0.26): 15.5±2.5; IC50 (SKOV-3): 11800 ± 300 nM; IC50 242: 1380 nM

**Q.** How did the tumor volume [1] turn out when “KFAKFAKKFAKFAKKFAK [Phor18, reference compound]” was run?
**A.** Its tumor volume is “ineffective in reducing the xenograft volume”.
